# Results from patent US20180250230A1, “POLYMERS AND MICROSPHERES” (BIOCOMPATIBLES UK LIMITED, priority 2015, published 2018).
# Experiment: Elution of dyes from loaded microspheres in PBS
# Format: physicochemical
# Conditions: from APTA43 microspheres; 1 ml in 200 mL PBS; initial loading 8.6 umols per mL of microspheres
# Procedure: Microspheres of each polymer formulation were loaded with equal quantities of each dye. 1 ml samples of dye-loaded microspheres were added to 200 mL of PBS in an amber jar. The microsphere suspensions were rolled to provide continuous mixing. At each time point the eluent was sampled and assayed by UV/Vis spectrophotmetery as above. The volume of sampled eluent was replaced with fresh PBS to maintain the elution volume. FIG. 5 illustrates the elution profiles of each dye from APTA43 microspheres.
row,Compound,initial loaded amount released within 60 minutes
1,"O=S(=O)([O-])c1cc(O)c2ccc3c(S(=O)(=O)[O-])cc(S(=O)(=O)[O-])c4ccc1c2c34.[Na+].[Na+].[Na+] [Formulation P3, 8-hydroxypyrene-1,3,6-trisulfonic acid trisodium salt]",approximately 3%
2,"O=S(=O)([O-])c1ccc2ccc3cccc4ccc1c2c34.[Na+] [Formulation P1, 1-pyrenesulfonic acid sodium salt]",80%
3,"O.O=S(=O)([O-])c1cc(S(=O)(=O)[O-])c2ccc3c(S(=O)(=O)[O-])cc(S(=O)(=O)[O-])c4ccc1c2c43.[Na+].[Na+].[Na+].[Na+] [Formulation P4, 1,3,6,8-pyrenetetrasulfonic acid hydrate tetrasodium salt]",approximately 3%
4,"O=S(=O)([O-])c1cc(S(=O)(=O)[O-])c2ccc3c(O)cc(O)c4ccc1c2c43.[Na+].[Na+] [Formulation P2, 6,8-dihydroxypyrene-1,3-disulfonic acid disodium salt]",9%
